Where a SMILES comes first, the peptide text is derived from it.
Legend:
[1] = system: RMA-HHD target cells pulsed with peptide; settings: for CTL cytotoxicity to target cell presenting each peptide: immunogenicity of each peptide in each pool, FIG. 2; for CTL cytotoxicity to target cell presenting each peptide / induction of cytotoxic T cells: 51Cr release; for induction of cytotoxic T cells: peptide-bound liposome prepared from the single peptide, FIG. 3
[2] = system: T cells that produce interferon gamma (IFN-γ) antigen-specifically; experiment: ELISPOT (IFN-γ) with splenocytes of immunized mouse; type: in vivo, HHD mouse; settings: for IFN-γ production due to the stimulation with each peptide: immunogenicity of each peptide in each pool, FIG. 2
[3] = system: recombinant vaccinia virus that expresses HCV-NS3 gene (VV-NS3); design: species or system HHD mouse; settings: mouse, in vivo
[4] = immunization with recombinant virus VV-NS3, ELISPOT, FIG. 7

Compound | CTL cytotoxicity to target cell presenting each peptide [1] | IFN-γ production due to the stimulation with each peptide ([2]; ELISPOT) | induction of cytotoxic T cells [1] | vaccine effect of peptide-bound liposome prepared from single peptide [3] | further results
CC[C@H](C)[C@H](NC(=O)[C@H](CC(C)C)NC(=O)[C@H](CS)NC(=O)[C@H](CCCCN)NC(=O)[C@H](Cc1c[nH]c2ccccc12)NC(=O)[C@H](CCSC)NC(=O)[C@@H](N)CCC(N)=O)C(=O)N[C@@H](CCCNC(=N)N)C(=O)N[C@@H](CC(C)C)C(=O)O [compound 8, Gln Met Trp Lys Cys Leu Ile Arg Leu] | strongly induced antigen-specific CTL |  |  |  | 
CC[C@H](C)[C@H](NC(=O)[C@@H](NC(=O)[C@H](CO)NC(=O)[C@@H](NC(=O)[C@H](CC(=O)O)NC(=O)[C@H](CC(C)C)NC(=O)CN)C(C)C)C(C)C)C(=O)N1CCC[C@H]1C(=O)N[C@H](C(=O)O)[C@@H](C)O [compound 14, Gly Leu Asp Val Ser Val Ile Pro Thr] (H-GLDVSVIPT-OH) | strongly induced antigen-specific CTL | confirmed |  |  | 
CC[C@H](C)[C@H](NC(=O)[C@H](CS)NC(=O)[C@@H](NC(=O)[C@H](C)NC(=O)[C@H](CC(C)C)NC(=O)[C@@H](N)Cc1ccccc1)[C@@H](C)O)C(=O)N[C@@H](CC(N)=O)C(=O)NCC(=O)N[C@H](C(=O)O)C(C)C [compound 23, Phe Leu Ala Thr Cys Ile Asn Gly Val] (H-FLATCINGV-OH) | strongly induced antigen-specific CTL | confirmed | confirmed |  | 
CSCC[C@H](NC(=O)[C@@H](N)Cc1ccc(O)cc1)C(=O)N[C@@H](CC(N)=O)C(=O)N[C@H](C(=O)N1CCC[C@H]1C(=O)NCC(=O)N[C@@H](CC(C)C)C(=O)N1CCC[C@H]1C(=O)N[C@H](C(=O)O)C(C)C)[C@@H](C)O [peptide #3, Tyr Met Asn Thr Pro Gly Leu Pro Val] (H-YMNTPGLPV-OH) | strongly induced antigen-specific CTL | confirmed |  | remarkable vaccine effect | immunogenicity of liposome-bound peptide ([2]; F1 mouse (HHD male x C57BL/6 female) expressing HLA-A*0201 and H-2b, ELISPOT, FIG. 5): high immunogenicity of the same level as that of mouse epitope 1630-1637; boost effect on immunization with VV-NS3 [2, 4]: absent; immunogenicity of peptide on immunization with VV-NS3 [2, 4]: not exhibited; immunogenicity of peptide on immunization with whole NS3 ([2]; immunization with recombinant viruses Adex1CA3269 and VV-NS3, peptide not liposome-bound, FIG. 6): low immunogenicity and low; IFN-γ production ([2]; peptide-bound liposome prepared from the single peptide, ELISPOT, FIG. 3): particularly remarkable
CSCC[C@H](NC(=O)CN)C(=O)N[C@@H](Cc1ccccc1)C(=O)N[C@@H](CC(=O)O)C(=O)N[C@@H](CO)C(=O)N[C@@H](CO)C(=O)N[C@H](C(=O)N[C@@H](CC(C)C)C(=O)N[C@@H](CS)C(=O)O)C(C)C [peptide #13, Gly Met Phe Asp Ser Ser Val Leu Cys] (H-GMFDSSVLC-OH) | strongly induced antigen-specific CTL | confirmed | confirmed | remarkable vaccine effect | 
CC[C@H](C)[C@H](N)C(=O)N[C@@H](CCSC)C(=O)N[C@H](C(=O)N[C@@H](CS)C(=O)N[C@@H](CCSC)C(=O)N[C@@H](CO)C(=O)N[C@@H](C)C(=O)N[C@@H](CC(=O)O)C(=O)N[C@@H](CC(C)C)C(=O)O)[C@@H](C)O [peptide #19, Ile Met Thr Cys Met Ser Ala Asp Leu] (H-IMTCMSADL-OH) | strongly induced antigen-specific CTL | confirmed |  | remarkable vaccine effect | 
IMACMSADL (Hepatitis C virus) [#19-3A] |  |  |  |  | vaccine effect, comparison of #19 and #19-3A bound to liposome ([1]; liposome inoculated twice, FIG. 11): higher vaccine effect
cys Met Ser Ala Asp Leu Glu Val Val (CMSADLEVV; Hepatitis C virus) [compound 17] | strongly induced antigen-specific CTL | confirmed | confirmed |  | 
